# Experimental data published in patent US11911374B2, “Methods and uses for treating cancer” (NELUM CORPORATION, priority 2019, dated 2024).
# Read-outs that look alike come from different tables or passages of the source.
# Legend:
# [1] = tested on: Smo; details: preclinical pancreatic cancer models; cited from earlier work
# [2] = tested on: castration-resistant prostate cancer; details: murine castration-resistant prostate cancer models; cited from earlier work
# [3] = dogs, cited from earlier work
# [4] = tested on: Gli1 mRNA; details: MRC5 human embryonic fibroblasts; read-out: IC50, expression of Gli1 mRNA; cited from earlier work
# [5] = rats, cited from earlier work
# [6] = tested on: JH051; experiment: JH051 PDAC subcutaneous xenograft model; assay type: in vivo, mice; details: JH 051, nab-paclitaxel 50 mg/kg 1dq4×3, TAK-441 25 mg/kg daily p.o.
# Experimental: (§1) After several dose-finding studies to define the most feasible dose of nab-paclitaxel, a dose of 50 mg/kg 1dq4×3 was used. TAK-441 was selected and administered daily at the recommended dose (25 mg/kg daily p.o.). The study was conducted for 21 days. Based on the tumor volume values on experimental day 21, it was estimated the Tumor Growth Inhibition (TGI) factor as indicated in the Table 1.
# [7] = design: dose or concentration left out as unconfirmed; details: mice; cited from earlier work
# [8] = design: dose or concentration left out as unconfirmed; details: human beings; cited from earlier work
# [9] = molecular target: T1, P-glycoprotein (P-gp) (Homo sapiens, UniProt P08183); details: cited from earlier work
# T1 construct: endogenous in cells; host or cells: Caco-2 cells
# T1 sequence (P08183 whole entry): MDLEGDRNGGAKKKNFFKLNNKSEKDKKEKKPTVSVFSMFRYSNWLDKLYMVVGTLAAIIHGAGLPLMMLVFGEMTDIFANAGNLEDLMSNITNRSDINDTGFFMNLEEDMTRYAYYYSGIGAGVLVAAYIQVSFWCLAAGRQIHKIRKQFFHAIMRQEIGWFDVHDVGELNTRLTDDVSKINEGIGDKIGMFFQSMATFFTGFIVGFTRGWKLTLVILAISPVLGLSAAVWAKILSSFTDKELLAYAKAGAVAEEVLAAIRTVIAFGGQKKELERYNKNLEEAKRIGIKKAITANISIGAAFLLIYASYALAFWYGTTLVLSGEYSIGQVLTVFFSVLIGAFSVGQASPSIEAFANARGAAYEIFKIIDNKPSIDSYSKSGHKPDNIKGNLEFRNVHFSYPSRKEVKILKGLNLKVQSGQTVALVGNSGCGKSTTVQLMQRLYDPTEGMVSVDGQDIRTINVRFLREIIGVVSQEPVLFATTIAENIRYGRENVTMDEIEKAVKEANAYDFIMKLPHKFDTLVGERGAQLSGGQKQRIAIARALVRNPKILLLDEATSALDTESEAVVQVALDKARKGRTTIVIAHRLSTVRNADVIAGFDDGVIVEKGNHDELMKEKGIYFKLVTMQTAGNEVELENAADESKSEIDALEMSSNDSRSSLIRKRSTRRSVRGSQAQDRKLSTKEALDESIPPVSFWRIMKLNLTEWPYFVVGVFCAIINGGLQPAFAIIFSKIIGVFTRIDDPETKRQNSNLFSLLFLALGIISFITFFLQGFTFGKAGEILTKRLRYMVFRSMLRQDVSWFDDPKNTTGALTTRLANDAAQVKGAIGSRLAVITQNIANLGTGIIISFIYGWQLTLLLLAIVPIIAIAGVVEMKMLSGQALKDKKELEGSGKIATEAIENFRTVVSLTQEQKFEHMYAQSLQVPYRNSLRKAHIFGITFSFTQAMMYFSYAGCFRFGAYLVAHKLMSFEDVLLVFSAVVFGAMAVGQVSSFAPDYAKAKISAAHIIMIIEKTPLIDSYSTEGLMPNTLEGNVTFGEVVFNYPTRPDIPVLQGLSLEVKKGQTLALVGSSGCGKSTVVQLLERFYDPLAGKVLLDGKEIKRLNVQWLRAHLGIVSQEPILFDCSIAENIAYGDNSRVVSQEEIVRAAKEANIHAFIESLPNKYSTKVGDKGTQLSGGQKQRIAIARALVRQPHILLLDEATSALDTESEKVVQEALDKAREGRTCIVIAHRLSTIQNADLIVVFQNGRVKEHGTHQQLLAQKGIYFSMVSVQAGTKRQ
# [10] = cited from earlier work
# [11] = tested on: CYP isozymes; details: cited from earlier work
# [12] = molecular target: human neurotransmitter dopamine transporter (Homo sapiens, UniProt Q01959); design: dose or concentration left out as unconfirmed; details: cited from earlier work
# human neurotransmitter dopamine transporter, sequence (Q01959 whole entry): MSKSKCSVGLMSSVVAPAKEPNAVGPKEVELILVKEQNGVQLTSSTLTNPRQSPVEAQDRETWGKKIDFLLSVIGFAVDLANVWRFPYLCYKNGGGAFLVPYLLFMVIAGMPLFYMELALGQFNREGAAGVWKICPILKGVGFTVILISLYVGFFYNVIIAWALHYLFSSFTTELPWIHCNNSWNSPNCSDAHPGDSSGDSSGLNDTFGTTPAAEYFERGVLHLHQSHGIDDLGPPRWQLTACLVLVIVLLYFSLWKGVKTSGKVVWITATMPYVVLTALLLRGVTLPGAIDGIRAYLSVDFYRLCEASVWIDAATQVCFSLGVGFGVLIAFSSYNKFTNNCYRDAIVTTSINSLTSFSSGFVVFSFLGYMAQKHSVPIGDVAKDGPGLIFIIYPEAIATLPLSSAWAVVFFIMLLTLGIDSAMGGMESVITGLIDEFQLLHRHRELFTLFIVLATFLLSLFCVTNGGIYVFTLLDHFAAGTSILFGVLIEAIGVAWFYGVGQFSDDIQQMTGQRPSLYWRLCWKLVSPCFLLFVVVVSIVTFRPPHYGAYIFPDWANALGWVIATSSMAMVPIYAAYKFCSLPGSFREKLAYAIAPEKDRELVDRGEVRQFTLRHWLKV
# [13] = tested on: human PDE4 phosphodiesterase; design: dose or concentration left out as unconfirmed; details: cited from earlier work
# [14] = cited from earlier work; remark: listed apart in the source
# [15] = tested on: PAN-04 primary human pancreas xenograft; details: PAN-04 xenograft, cited from earlier work
# [16] = tested on: Caco-2 cells; details: cited from earlier work
# [17] = rats; cited from earlier work
# [18] = design: dose or concentration left out as unconfirmed; details: rats; cited from earlier work
# [19] = tested on: medulloblastoma allograft; details: cited from earlier work
# [20] = tested on: Panc025; experiment: Panc025 PDAC subcutaneous xenograft model; assay type: in vivo, mice; details: Panc 025, nab-paclitaxel 50 mg/kg 1dq4×3, TAK-441 25 mg/kg daily p.o.
# Experimental: as §1, with “1. […] In order to evaluate the histological status of the stroma after treatment, Masson's Trichrome stained slides from Panc 163 and Panc 025 models were analyzed.” for “1.”
# [21] = molecular target: T2, CYP2C8 (Homo sapiens, UniProt P10632); details: cited from earlier work
# T2 sequence (P10632 1-490): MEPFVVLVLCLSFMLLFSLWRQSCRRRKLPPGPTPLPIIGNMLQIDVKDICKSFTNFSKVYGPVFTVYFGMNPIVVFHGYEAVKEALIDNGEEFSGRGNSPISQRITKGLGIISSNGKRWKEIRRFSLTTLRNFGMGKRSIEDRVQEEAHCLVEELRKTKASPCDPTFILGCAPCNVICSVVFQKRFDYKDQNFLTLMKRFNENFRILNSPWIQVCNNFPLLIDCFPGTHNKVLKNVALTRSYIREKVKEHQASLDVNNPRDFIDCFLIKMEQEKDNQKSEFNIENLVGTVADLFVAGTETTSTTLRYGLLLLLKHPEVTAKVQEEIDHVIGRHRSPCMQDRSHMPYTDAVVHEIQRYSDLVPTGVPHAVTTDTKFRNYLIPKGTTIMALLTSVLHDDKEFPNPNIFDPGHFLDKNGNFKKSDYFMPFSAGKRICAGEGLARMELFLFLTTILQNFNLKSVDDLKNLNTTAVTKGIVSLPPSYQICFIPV
# [22] = tested on: Gli transcriptional activity; details: Gli-luc NIH3T3 cells; cited from earlier work
# [23] = molecular target: T3, human Smo (hSmo) (Homo sapiens, UniProt Q99835); details: 293T cells overexpressing hSmo; read-out: IC50, inhibition of cyclopamine binding to human Smo; cited from earlier work
# T3 construct: expressed in transfected cells; host or cells: 293T cells
# T3 sequence (Q99835 28-787): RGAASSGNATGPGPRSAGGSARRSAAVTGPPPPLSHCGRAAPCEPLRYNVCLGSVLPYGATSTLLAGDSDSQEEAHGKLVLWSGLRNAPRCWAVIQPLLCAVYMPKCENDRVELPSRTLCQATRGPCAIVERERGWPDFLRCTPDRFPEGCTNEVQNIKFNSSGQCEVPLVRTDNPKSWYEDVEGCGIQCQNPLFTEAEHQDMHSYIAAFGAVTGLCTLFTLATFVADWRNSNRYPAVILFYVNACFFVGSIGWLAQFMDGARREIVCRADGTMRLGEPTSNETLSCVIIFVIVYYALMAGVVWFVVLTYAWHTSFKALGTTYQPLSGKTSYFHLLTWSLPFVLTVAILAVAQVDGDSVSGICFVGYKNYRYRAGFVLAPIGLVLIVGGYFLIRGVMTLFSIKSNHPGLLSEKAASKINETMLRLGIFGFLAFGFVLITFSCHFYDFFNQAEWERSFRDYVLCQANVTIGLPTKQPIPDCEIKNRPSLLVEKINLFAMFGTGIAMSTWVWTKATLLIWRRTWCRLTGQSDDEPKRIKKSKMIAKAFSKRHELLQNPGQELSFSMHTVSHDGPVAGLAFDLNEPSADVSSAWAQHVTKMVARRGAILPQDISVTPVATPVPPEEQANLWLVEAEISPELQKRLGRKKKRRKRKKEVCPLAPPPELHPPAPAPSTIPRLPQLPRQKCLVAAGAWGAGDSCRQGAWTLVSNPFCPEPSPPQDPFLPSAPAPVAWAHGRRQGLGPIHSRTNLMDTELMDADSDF
# [24] = design: dose or concentration left out as unconfirmed; details: dogs; cited from earlier work
# [25] = tested on: Panc163; experiment: Panc163 PDAC subcutaneous xenograft model; assay type: in vivo, mice; details: Panc 163, nab-paclitaxel 50 mg/kg 1dq4×3, TAK-441 25 mg/kg daily p.o.
# Experimental: as §1, with “1. […] In order to evaluate the histological status of the stroma after treatment, Masson's Trichrome stained slides from Panc 163 and Panc 025 models were analyzed.” for “1.”
# [26] = exposures exceeding the predicted efficacious concentration
smiles,measurement,setting,value
CC1=C2C[C@H]3[C@@H](CC[C@@H]4C[C@H](NS(C)(=O)=O)CC[C@@]43C)[C@@H]2CC[C@@]2(C1)O[C@@H]1C[C@H](C)CN[C@H]1[C@H]2C [IPI-926],"stroma, tumor vascularization and effect of Gem chemotherapy",[1],"selective stromal elimination, better tumor vascularization, and greater effect of Gem chemotherapy"
"CCc1cc2c(c(OCC(F)(F)F)c(C(=O)NC3CCN(C(=O)CO)CC3)n2C)c(=O)n1CC(=O)c1ccccc1 [TAK-441, 6-ethyl-N-[1-(hydroxyacetyl)piperidin-4-yl]-1-methyl-4-oxo-5-(2-oxo-2-phenylethyl)-3-(2,2,2-triflurorethoxy)-4,5-dihydro-1H-pyrrolo[3,2-c]pyrdine-2-carboxamide]",tumor progression / paracrine Hh ligand signaling,[2],inhibit tumor progression
same,dose-limiting toxicities,[3],weight loss; decrease in food consumption; injuries of the gastrointestinal tract
same,toxicological changes,[3]; [26],decreased body weight; atrophy of the growth plate in the ribs and hair follicles; erosion or ulceration of the gastric mucosa; anemia; necrosis and hypocellularity of the bone marrow as well as inflammation and hemorrhage in the lung
same,IC50,[4],1.9 nM
same,other findings of unknown relevance to humans,[5],gait alterations and tremors
same,toxicological changes,[5]; [26],decreased body weight; atrophy of the growth plate in the ribs and hair follicles; erosion or ulceration of the gastric mucosa; anemia; necrosis and hypocellularity of the bone marrow as well as inflammation and hemorrhage in the lung
same,TGI (%) day 21 (1 − [Tf − Ti]/[Cf − Ci]),[6],15%
same,binding to plasma proteins,[7],99.7%
same,binding to plasma proteins,[8],87.7%
same,substrate for P-glycoprotein (P-gp) flow pump,[9],bad substrate
same,clinical response,[10]; a patient with basal cell carcinoma,partial response
same,mean Tmax,[10]; after a single dose,1.8 to 4.2 h
same,mean Tmax,[10]; after several doses,2.4 to 4.0 h
same,pharmacokinetics based on plasma concentration-time AUC,[10]; dose range 50-1600 mg,linear over the entire dose range
same,dose-limiting toxicities,[10]; patients,muscle spasms and fatigue
same,inhibition of Gli1 gene expression in skin biopsies,[10]; patients,observed with all doses analyzed
same,median elimination half-life,[10]; patients,12.9 to 18.3 h
same,tolerability,[10]; patients,well-tolerated
same,inhibitory effect on other CYP isozymes,[11],no inhibitory effect
same,time-dependent inhibition of CYP isoenzyme,[11]; human liver microsomes,not a time-dependent inhibitor
same,inhibition of human dopamine transporter,[12],75%
same,inhibition of human PDE4 phosphodiesterase,[13],67%
same,CL,[14]; dogs,6.632 mL/min/kg
same,distribution volume in steady state plasma (Vss),[14]; dogs,2.1813 L/kg
same,t %,[14]; dogs,9.8 h
same,"increase of degree of absorption, fed versus fasting (Cmax and AUC0-24 h)",[14]; fed dogs compared with fasting dogs,approximately 2 times
same,expression of Gli1 mRNA in vivo,[15]; stromal tumor associated,dose-dependent inhibition
same,tumor activity,[15]; p<0.025,significant dose-dependent tumor activity
same,"Papp, A-to-B",[16],19.6 '10-6 cm/sec
same,CL,[17],2.688 mL/min/kg
same,distribution volume in steady state plasma (Vss),[17],0.6816 L/kg
same,t %,[17],1.7 h
same,binding to plasma proteins,[18],96.2%
same,Gli1 mRNA expression in tumor-associated stromal tissue,[19]; Ohashi et al.,suppressed
same,expression of Gli1 mRNA in vivo,"[19]; medulloblastoma allograft, mouse tumor",dose-dependent inhibition
same,tumor activity,"[19]; medulloblastoma allograft, p<0.025",significant dose-dependent tumor activity
same,tumor growth treatment/control ratio,[19]; mouse medulloblastoma allograft model,3%
same,TGI (%) day 21 (1 − [Tf − Ti]/[Cf − Ci]),[20],42%
same,CYP2C8 inhibition,[21],weak inhibitor
same,IC50,[22],4.4 nM
same,IC50,[23],8.6 nM
same,binding to plasma proteins,[24],79.6%
same,TGI (%) day 21 (1 − [Tf − Ti]/[Cf − Ci]),[25],61%
